According to US20110263516A1, “VASODILATOR” (CALPIS CO., LTD., priority 2006, published 2011):

Columns and labels:
[1] = test system: thoracic aorta ring of a Wistar rat; experiment: Vasodilating test on phenylephrine-preconstricted aorta ring (Magnus apparatus); type: cell-based; conditions: aorta ring preconstricted with 1 μM phenylephrine; for vasodilator response at 10 mM: FIG. 1; for concentration from which the vasodilator response was observed: ten-fold increasing concentrations from 10^-9 M, change in tension
Method: The thoracic aorta of a Wistar rat was taken out, cut into 2 mm long, and made into an aorta ring. The ring was set in a Magnus apparatus (product name “micro tissue organ bath MTB-1Z”, manufactured by LABO SUPPORT CO., LTD.), and allowed to equilibrate with a constant tension. The constriction response of the aorta ring was confirmed with 50 mM KCl.
Next, the aorta ring was preliminarily constricted with 1 μM phenylephrine, and VPP and IPP prepared in Synthesis Example were added at ten-fold increasing concentrations from 10^−9 M to observe the vasodilator response through the change in tension of the aorta ring. The dose dependency of the vasodilator response was also studied.
The vasodilating test was conducted in the same way as in Example 1, except that the tripeptides VPP and IPP were replaced with amino acids, valine (Val) and proline (Pro), at the same concentration.

[2] = test system: blood vessel from which the vascular endothelium was physically removed; experiment: Confirmatory test for endothelium dependency of vasodilator response; type: cell-based, Wistar rat; conditions: endothelium-removed vessel compared with intact vessel; FIG. 2
Method: In order to confirm that the vasodilator effect of VPP and IPP was associated with the vascular endothelium, a vasodilating test similar to the above was conducted with VPP, using as a control a blood vessel from which the vascular endothelium was physically removed by a routine method.

## O=C(O)[C@@H]1CCCN1 [Pro, proline, reference compound]
[1]
  vasodilator response at 10 mM: no vasodilator response was observed

## CC(C)[C@H](N)C(=O)O [Val, valine, reference compound]
[1]
  vasodilator response at 10 mM: no vasodilator response was observed

## Ile-Pro-Pro [IPP]
[1]
  vasodilator response at 10 mM: clear, transient vasodilator response
  concentration from which the vasodilator response was observed: 1 mM

## Val-Pro-Pro [VPP]
[1]
  vasodilator response at 10 mM: clear, transient vasodilator response
  concentration from which the vasodilator response was observed: 1 mM
[2]
  vasodilator response after removal of the endothelium: weakened
